The source made the active and inactive calls.
Tests used:
[1] = molecular target: Polyadenylate-binding protein 1 (Homo sapiens, UniProt P11940); test: PABP1 MLLE–PAM2 binding inhibitor potency, dose response, biochemical, fluorescence polarization, FITC-PAM2 peptide (AID 602259); type: functional; details: read-out: IC50_Mean
[2] = molecular target: Caspase-8 (Homo sapiens, UniProt Q14790); test: caspase-8 inhibition counter-screen, dose response, selectivity assay for caspase-6 inhibitor project, biochemical, Z-IETD-R110 fluorescence, cherry-picked samples (AID 743294)
[3] = molecular target: Dual specificity protein phosphatase 3 (Homo sapiens, UniProt P51452); test: VHR phosphatase inhibition, dose response, selectivity assay for STEP inhibitor project, biochemical (AID 602374); type: functional; details: read-out: IC50_Mean
[4] = molecular target: T1, Rac GTPase-activating protein 1 (Homo sapiens, UniProt Q9H0H5); test: MgcRacGAP GTPase-activating activity inhibitors, confirmation, biochemical, ADP Hunter fluorescence, primary and confirmatory (AID 624330); type: functional
T1 sequence (Q9H0H5 whole entry): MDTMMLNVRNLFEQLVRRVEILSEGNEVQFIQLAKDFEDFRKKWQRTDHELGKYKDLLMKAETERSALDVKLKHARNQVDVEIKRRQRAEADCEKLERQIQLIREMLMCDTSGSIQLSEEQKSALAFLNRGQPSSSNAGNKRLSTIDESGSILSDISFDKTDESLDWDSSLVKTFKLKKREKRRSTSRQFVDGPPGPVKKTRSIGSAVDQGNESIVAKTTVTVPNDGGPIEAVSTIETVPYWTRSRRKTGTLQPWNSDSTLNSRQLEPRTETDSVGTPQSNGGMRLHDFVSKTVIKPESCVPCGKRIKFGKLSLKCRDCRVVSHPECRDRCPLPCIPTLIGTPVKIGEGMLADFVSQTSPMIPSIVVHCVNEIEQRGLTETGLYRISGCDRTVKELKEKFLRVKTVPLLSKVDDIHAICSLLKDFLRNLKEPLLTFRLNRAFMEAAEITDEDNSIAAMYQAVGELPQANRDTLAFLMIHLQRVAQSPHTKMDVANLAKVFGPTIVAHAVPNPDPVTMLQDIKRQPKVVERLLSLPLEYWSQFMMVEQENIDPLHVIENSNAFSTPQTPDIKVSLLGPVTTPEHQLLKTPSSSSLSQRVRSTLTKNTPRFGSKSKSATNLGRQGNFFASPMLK

[5] = molecular target: Small ubiquitin-related modifier 1 (Homo sapiens, UniProt P63165); test: inhibitors of SUMO1 partner interactions, dose response, biochemical, FRET (AID 624383); type: functional; details: read-out: IC50_Mean
[6] = molecular target: Fatty acid synthase (Homo sapiens, UniProt P49327); test: FAS thioesterase domain inhibitors, dose response, biochemical, kinetic fluorescence intensity (AID 624326); type: functional;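 also: rate of fluorescence rise from hydrolysis of a fluorogenic O-methyl fluorescein ester substrate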
[7] = molecular target: T2, Heat shock factor protein 1 (Mus musculus, UniProt P38532); test: HSF1 potentiators in luciferase reporter cells, confirmation, cell-based, NIH3T3, luminescence, dose retest (AID 435004); type: functional;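 also: stress induced by proteasome inhibitor MG132 added 30 min after compound; luciferase reporter driven by HSF1 response element in NIH3T3 cells; actives raise luminescence as potentiators of the MG132 stress response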
T2 sequence (P38532 whole entry): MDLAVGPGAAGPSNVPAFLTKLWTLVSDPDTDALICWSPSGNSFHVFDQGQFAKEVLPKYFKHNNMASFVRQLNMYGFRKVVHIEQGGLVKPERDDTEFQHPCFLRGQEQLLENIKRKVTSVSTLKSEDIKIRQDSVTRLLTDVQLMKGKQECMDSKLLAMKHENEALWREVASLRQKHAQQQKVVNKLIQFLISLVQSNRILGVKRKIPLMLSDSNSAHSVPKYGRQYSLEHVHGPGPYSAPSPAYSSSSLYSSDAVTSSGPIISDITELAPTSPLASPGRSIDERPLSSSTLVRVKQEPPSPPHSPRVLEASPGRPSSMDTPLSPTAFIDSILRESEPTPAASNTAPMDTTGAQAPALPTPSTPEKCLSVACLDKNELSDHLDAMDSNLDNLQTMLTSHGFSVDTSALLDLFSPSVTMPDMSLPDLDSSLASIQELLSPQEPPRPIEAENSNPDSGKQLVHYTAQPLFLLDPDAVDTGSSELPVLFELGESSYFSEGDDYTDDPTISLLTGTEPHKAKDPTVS

[8] = molecular target: T3, Replicative DNA helicase DnaB (Mycobacterium tuberculosis, UniProt P9WMR3); test: DnaB intein splicing inhibitors, dose response, biochemical, cell-free fluorescence (AID 449749); type: functional
T3 sequence (P9WMR3 whole entry): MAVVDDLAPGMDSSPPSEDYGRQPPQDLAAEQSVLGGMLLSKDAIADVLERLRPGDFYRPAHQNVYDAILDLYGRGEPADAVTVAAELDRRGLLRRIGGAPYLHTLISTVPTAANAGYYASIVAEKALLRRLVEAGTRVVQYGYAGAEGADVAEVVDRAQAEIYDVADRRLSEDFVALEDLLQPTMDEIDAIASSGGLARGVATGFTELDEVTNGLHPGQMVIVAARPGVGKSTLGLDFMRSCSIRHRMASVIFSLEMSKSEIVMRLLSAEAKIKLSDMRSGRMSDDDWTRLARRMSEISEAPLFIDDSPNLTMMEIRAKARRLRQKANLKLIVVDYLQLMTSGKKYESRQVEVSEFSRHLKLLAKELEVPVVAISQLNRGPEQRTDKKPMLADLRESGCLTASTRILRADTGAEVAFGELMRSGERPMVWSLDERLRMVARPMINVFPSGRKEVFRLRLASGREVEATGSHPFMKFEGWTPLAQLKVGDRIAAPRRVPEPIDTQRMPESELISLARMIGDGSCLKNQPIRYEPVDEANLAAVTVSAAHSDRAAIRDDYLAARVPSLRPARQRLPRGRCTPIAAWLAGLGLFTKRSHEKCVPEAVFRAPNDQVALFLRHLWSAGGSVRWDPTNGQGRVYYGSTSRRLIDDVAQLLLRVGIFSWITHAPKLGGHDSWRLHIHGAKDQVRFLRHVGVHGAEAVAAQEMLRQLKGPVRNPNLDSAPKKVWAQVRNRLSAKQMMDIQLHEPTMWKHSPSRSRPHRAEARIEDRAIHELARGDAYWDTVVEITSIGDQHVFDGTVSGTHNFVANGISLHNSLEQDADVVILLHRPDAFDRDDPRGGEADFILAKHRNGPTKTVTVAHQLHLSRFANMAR

[9] = molecular target: Mu-type opioid receptor (Homo sapiens, UniProt P35372); test: HTS Image-Based Screen for Agonists of the MOR Receptor. [Related pubchem assays (depositor defined):AID1777, AID1785, AID1786, AID2133]; type: functional;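 also: imaging of beta-arrestin GFP recruitment into spots after receptor activation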
[10] = molecular target: Delta-type opioid receptor (Homo sapiens, UniProt P41143); test: HTS Image-Based Screen for Antagonists of the DOR Receptor. [Related pubchem assays (depositor defined):AID1777, AID1785, AID1786, AID2133]; type: functional;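 also: U2OS cells expressing DOR stimulated with 100 nM SNC80 agonist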
[11] = molecular target: Kappa-type opioid receptor (Homo sapiens, UniProt P41145); type: functional
[12] = THP-1 cell cytotoxicity, dose response, cytotoxicity control for Vif-APOBEC3G degradation inhibitor project, THP-1 cells (AID 1117359); type: functional; details: Human immunodeficiency virus 1, THP-1
[13] = inhibitors of intracellular T. cruzi replication, confirmation, NIH3T3 host cells, beta-gal luminescence (AID 2044); type: functional, cell-based;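 also: intracellular parasites grown in NIH/3T3 mouse fibroblasts as host cells; luminescent beta-galactosidase reporter signal from transgenic T. cruzi replicating inside host cells; inhibitors lower the luminescence signal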

Dual specificity protein phosphatase 3, sequence (P51452 whole entry): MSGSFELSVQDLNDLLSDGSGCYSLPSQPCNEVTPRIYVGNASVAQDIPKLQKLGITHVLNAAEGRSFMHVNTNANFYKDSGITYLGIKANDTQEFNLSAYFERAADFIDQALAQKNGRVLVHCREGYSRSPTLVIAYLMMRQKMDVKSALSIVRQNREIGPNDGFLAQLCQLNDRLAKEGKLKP
Mu-type opioid receptor, sequence (P35372 whole entry): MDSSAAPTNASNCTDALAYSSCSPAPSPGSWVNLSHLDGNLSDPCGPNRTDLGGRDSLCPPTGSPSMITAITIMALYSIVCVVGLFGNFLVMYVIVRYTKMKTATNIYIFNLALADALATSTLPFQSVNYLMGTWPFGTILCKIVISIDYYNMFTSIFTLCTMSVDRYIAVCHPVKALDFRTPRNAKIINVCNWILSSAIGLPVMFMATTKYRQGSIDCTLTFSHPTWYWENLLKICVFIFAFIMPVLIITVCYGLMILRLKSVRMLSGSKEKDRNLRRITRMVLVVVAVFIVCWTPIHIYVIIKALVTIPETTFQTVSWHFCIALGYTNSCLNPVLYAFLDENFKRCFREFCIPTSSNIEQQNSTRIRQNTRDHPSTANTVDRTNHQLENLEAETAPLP
Caspase-8, sequence (Q14790 217-374 limits assumed): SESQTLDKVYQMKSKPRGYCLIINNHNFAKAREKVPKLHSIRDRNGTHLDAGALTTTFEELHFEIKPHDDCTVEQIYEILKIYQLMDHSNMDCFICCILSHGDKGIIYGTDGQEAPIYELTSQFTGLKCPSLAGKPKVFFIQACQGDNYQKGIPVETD
Caspase-8, sequence (Q14790 385-479 limits assumed): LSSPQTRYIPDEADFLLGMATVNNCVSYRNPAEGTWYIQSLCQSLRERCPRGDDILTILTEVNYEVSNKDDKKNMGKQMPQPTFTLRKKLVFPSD
Small ubiquitin-related modifier 1, sequence (P63165 whole entry, the tested form may be a part): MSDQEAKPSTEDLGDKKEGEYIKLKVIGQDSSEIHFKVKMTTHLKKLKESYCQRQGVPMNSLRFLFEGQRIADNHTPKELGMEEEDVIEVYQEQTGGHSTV
Kappa-type opioid receptor, sequence (P41145 whole entry): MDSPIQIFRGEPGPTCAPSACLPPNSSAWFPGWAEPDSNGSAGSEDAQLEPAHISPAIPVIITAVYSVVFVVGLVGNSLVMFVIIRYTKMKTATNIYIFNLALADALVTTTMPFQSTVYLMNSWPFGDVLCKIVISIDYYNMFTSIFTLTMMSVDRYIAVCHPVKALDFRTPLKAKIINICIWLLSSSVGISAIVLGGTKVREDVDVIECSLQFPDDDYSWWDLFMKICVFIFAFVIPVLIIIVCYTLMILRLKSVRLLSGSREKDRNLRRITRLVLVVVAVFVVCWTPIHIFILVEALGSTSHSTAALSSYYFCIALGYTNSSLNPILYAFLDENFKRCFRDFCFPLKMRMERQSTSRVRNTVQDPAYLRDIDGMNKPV
Delta-type opioid receptor, sequence (P41143 whole entry): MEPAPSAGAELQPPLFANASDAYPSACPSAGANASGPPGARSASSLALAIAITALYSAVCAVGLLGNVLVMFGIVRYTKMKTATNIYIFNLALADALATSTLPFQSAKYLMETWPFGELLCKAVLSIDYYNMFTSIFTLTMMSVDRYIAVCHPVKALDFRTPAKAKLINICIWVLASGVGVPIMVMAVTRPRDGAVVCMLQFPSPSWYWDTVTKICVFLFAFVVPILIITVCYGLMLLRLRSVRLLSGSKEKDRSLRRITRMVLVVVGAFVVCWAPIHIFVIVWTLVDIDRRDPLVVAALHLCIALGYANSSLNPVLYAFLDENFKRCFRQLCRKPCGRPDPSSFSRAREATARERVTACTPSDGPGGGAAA
Polyadenylate-binding protein 1, sequence (P11940 whole entry): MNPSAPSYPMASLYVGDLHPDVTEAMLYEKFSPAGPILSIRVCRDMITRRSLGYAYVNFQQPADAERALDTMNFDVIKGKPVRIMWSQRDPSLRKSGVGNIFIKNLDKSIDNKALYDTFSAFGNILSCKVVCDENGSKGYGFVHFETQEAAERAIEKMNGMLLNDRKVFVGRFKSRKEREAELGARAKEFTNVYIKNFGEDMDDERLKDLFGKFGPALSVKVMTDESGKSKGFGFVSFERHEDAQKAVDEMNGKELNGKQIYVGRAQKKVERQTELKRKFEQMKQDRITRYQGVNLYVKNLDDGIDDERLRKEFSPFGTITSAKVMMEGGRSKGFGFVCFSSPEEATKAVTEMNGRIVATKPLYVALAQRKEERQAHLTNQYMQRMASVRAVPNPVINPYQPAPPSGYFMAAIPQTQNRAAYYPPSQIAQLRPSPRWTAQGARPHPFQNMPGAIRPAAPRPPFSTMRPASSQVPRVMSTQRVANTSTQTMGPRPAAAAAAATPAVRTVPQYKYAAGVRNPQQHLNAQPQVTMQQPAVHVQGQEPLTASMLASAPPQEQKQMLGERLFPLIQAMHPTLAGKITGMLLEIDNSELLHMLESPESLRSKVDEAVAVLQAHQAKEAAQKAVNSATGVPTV
Fatty acid synthase, sequence (P49327 whole entry, the tested form may be a part): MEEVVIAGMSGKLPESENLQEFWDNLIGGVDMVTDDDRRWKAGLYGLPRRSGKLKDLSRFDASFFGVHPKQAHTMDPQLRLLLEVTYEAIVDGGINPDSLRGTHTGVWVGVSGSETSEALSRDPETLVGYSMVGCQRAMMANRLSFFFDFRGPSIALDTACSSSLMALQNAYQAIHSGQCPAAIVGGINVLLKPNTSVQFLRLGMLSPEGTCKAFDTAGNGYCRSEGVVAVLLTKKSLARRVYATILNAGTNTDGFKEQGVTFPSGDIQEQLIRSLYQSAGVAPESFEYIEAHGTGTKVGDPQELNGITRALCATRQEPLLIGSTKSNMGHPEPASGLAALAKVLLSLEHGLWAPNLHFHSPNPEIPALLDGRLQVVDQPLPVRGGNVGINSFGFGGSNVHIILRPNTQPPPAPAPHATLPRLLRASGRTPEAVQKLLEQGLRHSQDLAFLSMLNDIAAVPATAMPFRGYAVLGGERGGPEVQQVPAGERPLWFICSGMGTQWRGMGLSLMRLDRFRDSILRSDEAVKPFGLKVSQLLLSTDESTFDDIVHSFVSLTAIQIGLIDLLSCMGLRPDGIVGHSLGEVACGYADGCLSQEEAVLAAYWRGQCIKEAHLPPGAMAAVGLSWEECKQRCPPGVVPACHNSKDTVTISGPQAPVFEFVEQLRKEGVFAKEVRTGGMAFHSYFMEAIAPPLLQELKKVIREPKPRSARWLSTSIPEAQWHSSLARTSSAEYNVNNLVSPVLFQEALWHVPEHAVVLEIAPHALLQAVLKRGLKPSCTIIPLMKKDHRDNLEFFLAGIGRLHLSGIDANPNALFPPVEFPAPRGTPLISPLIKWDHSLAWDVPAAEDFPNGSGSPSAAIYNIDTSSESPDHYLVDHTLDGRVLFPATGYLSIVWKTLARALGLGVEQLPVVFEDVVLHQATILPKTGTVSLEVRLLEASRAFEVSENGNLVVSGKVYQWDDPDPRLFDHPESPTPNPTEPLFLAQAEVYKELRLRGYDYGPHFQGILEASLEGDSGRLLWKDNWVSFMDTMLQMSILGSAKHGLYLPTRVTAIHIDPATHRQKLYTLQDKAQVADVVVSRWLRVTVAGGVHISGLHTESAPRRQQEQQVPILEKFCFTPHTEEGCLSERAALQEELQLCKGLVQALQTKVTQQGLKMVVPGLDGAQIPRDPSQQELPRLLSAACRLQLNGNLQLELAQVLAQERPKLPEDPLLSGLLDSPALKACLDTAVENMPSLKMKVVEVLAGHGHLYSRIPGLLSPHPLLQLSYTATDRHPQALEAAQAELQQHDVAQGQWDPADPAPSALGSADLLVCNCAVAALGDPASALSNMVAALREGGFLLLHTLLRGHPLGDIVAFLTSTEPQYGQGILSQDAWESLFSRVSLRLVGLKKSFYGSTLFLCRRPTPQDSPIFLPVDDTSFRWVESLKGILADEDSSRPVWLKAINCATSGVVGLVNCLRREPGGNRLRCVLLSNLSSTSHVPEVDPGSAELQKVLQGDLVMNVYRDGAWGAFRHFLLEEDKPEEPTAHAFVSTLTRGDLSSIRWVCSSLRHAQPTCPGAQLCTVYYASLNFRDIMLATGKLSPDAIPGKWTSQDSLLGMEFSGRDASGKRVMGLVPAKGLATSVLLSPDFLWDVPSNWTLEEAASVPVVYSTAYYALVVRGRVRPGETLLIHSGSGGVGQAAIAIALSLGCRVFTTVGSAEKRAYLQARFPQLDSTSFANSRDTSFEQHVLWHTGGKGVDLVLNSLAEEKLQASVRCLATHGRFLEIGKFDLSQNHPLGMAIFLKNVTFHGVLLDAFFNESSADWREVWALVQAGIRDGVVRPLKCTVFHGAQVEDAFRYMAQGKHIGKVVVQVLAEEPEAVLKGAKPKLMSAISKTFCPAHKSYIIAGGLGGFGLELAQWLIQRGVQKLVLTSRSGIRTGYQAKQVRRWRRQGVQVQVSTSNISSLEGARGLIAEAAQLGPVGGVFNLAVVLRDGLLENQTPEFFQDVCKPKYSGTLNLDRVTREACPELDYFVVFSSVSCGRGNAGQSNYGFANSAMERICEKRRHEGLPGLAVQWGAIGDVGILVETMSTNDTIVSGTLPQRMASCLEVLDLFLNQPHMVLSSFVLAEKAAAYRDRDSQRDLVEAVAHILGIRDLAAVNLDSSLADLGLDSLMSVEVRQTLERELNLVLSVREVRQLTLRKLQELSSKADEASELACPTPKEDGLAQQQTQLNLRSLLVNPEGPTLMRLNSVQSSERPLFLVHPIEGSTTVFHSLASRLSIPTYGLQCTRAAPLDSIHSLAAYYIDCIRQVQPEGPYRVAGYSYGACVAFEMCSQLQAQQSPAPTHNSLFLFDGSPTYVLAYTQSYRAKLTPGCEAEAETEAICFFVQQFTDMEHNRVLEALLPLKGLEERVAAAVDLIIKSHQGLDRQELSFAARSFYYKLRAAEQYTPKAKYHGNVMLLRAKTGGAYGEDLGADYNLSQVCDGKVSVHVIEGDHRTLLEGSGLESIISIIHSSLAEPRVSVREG

| SMILES | IC50 [1] | AC50 [2] | IC50 [3] | IC50 [4] | IC50 [5] | IC50 [6] | EC50 [7] | AC50 [8] | EC50 [9] | IC50 [10] | IC50 [11] [µM] | CC50 [12] | EC50 [13] |
| --- | --- | --- | --- | --- | --- | --- | --- | --- | --- | --- | --- | --- | --- |
| O=S(=O)(O)c1cc(O)c2cc(Nc3ccccc3)ccc2c1 | > 66 µM (inactive) | > 70 µM (inactive) | 0.485 µM (active) | 37.9 µM (active) | 4.47 µM (active) |  |  |  |  |  |  |  |  |
| O=[N+]([O-])c1c(Nc2ccccc2O)cc(Cl)c2nonc12 |  |  |  |  |  | 7.45 µM (active) | 3.49 µM (inconclusive) | 2.19 µM (active) | > 32 µM (inactive) | 14.7 µM (inactive) | 11.5 | 12.2 µM (active) | 1.79 µM (active) |

— ChEMBL document CHEMBL1201862, “PubChem BioAssay data set” (2004)
